Where two headings read alike, the source gives them in different places.
Legend:
[1] = format: physicochemical; details: 53 h, 0.1 mg/mL, pH 4
Procedure: A quartz flask containing approximately 20 mL of 0.1 mg/mL (N,N-diethylcarbamoyl)methyl methyl (2E)but-2-ene-1,4-dioate in 50 mM pH 4.0 citrate buffer was placed in an ICH2 Photoreactor (Luzchem Research Inc.) with 16 cool white fluorescent lamps (F8T5/CW-8 Watt) installed. The light power was 22.8×10^3 lux with low level of near UV light (320-400 nm) at 2.2 watt/m^2. The sample was taken out after 53 hours to achieve a light exposure of 1.2 million lux hours.
To quantify the photodegratation of the (N,N-diethylcarbamoyl)methyl methyl (2E)but-2-ene-1,4-dioate powder, the presence of (N,N-diethylcarbamoyl)methyl methyl (2Z)but-2-ene-1,4-dioate (“compound (2)”) was quantified. The structure for compound (2) is shown below:
The sample was analyzed using the same HPLC method as described in Example 1. The amount of compound (2) found was 22.3 wt %.

[2] = format: physicochemical; details: 2.1 h
Procedure: Approximately 50 mg (N,N-Diethylcarbamoyl)methyl methyl (2E)but-2-ene-1,4-dioate powder was spread into a thin layer in open quartz containers. The sample was then placed in an ICH2 Photoreactor (Luzchem Research Inc.) with 16 near-UV fluorescent lamps (Hitachi FL8BL-B) installed. The near-UV light (320-400 nm) power was 94.2 watt/m^2. The sample was taken out after 2.1 hours to achieve a light exposure of 200 watt hour/m^2. The sample was prepared and analyzed the same way as described in Example 1. The amount of compound (1) found was 10.3 wt %.

[3] = format: physicochemical; details: 53 h
Procedure: Approximately 50 mg (N,N-diethylcarbamoyl)methyl methyl (2E)but-2-ene-1,4-dioate powder was spread into a thin layer (˜1 mm) in open quartz containers. The sample was then placed in an ICH2 Photoreactor (Luzchem Research Inc.) with 16 cool white fluorescent lamps (F8T5/CW-8 Watt) installed. The light power was 22.8×10^3 lux with low level of near UV light (320-400 nm) at 2.2 watt/m^2. The sample was taken out after 53 hours to achieve a light exposure of 1.2 million lux hours. The sample solution was prepared at 0.2 mg/mL in diluent (water/acetonitrile/H3PO4 (80/20/0.05 by volume)).
To quantify the photodegratation of the (N,N-diethylcarbamoyl)methyl methyl (2E)but-2-ene-1,4-dioate powder, the presence of (N,N-diethylcarbamoyl)methyl (1S,3S,2R,4R)-2-{[(N,N-diethylcarbamoyl)methyl]oxycarbonyl}-3,4-bis(methoxycarbonyl)cyclobutanecarboxylate (“compound (1)”) was quantified. The structure of compound (1) is shown below:
The amount (weight percent) of compound (1) in the sample was determined by reverse phase HPLC using a C18 column and a 30-minute gradient method according to Table 1 where Mobile Phase A is water/0.05% H3PO4 and Mobile Phase B is water/acetonitrile/H3PO4 (10/90/0.05 by volume) with UV detection at 210 nm. The amount of compound (1) found was 29.0 wt %.

- amount of compound (2) found (2Z isomer photodegradant) [1]: 22.3 wt %
- amount of compound (1) found (photodegradant) [2]: 10.3 wt %
- amount of compound (1) found (photodegradant) [3]: 29.0 wt %
SMILES: CCN(CC)C(=O)COC(=O)/C=C/C(=O)OC [(N,N-Diethylcarbamoyl)methyl methyl (2E)but-2-ene-1,4-dioate]

Source: patent US9999672B2, “Pharmaceutical compositions of fumaric acid esters” (XenoPort, Inc., priority 2014, dated 2018)
